Patent US20230312522A1, “CYP46A1 INHIBITORS AND METHODS OF USE THEREOF” (Sage Therapeutics, Inc., priority 2020, published 2023)

Each compound was assayed against CYP46A1 (Homo sapiens (Human), UniProt Q9Y6A2) (assay: CYP46A1 enzyme assay (testosterone substrate, HPLC-MS)). Settings: CYP46A1 5 μM, Testosterone 10 mM, NADPH-generating system, 37° C., 15 minutes.
Format: biochemical
Procedure: Briefly, in a 384-well plate format, 10 μL per well of an enzyme-substrate mixture of CYP46A1 (5 μM final concentration) and Testosterone ([…] final concentration) were dispensed to wells containing test compound. For CYP46A1 titration, 5 μL per well of serially diluted CYP46A1 (concentrations including 10 μM, 5 μM, and 2.5 μM) and Testosterone (concentration of […]) were dispensed. For Testosterone titration, 5 μL per well of serially diluted Testosterone (concentrations including 10 μM, 5 μM, and 2.5 μM) and CYP46A1 (concentration of 5 μM) were dispensed. The plates were centrifuged at 1000 rpm for 30 seconds, and then sealed and incubated at 37° C. for 30 minutes. The plate was removed from the incubator, and then 10 μL per well of NADPH-generating system were dispensed to initiate the reaction. The plates were incubated at 37° C. for 15 minutes, added with 80 μL per well of 100% methanol consisting 1 ng/ml diclofenac as internal standard, and then transferred for HPLC-MS.
In Table 2, A indicates a CYP46A1 IC50<0.1 μM, B indicates a CYP46A1 IC50 (μM) of 0.1 μM to <1.0 μM, and C indicates a CYP46A1 IC50 (μM) of ≥1.0 μM

Chain of CYP46A1 (Q9Y6A2 whole entry, species assumed): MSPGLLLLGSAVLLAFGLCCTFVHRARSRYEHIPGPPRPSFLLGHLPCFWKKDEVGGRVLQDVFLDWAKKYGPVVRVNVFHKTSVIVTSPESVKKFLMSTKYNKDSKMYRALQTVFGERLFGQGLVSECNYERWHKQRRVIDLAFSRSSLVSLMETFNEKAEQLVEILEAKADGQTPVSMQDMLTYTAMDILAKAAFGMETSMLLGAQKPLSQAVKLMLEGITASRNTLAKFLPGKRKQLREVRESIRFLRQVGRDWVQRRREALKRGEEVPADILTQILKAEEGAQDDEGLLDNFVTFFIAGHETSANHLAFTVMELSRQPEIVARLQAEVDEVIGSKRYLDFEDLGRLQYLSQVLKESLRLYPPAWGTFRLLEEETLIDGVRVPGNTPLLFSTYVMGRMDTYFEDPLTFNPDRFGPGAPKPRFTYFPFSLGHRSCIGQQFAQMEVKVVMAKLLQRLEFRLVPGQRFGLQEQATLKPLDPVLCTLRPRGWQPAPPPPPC

Structure (SMILES)	IC50 [nM]
O=C(c1cccnc1-c1ccncn1)N1CCC(F)(Cc2ccc(F)cc2)CC1 [Compound 1, (4-fluoro-4-(4-fluorobenzyl)piperidin-1-yl)(2-(pyrimidin-4-yl)pyridin-3-yl)methanone]	< 100
O=C(c1cccnc1-c1ccncn1)N1CCC(F)(CC2CCOCC2)CC1 [Compound 2, (4-fluoro-4-((tetrahydro-2H-pyran-4-yl)methyl)piperidin-1-yl)(2-(pyrimidin-4-yl)pyridin-3-yl)methanone]	≥ 1000
O=C(c1cccnc1-c1ccncc1)N1CCC(F)(CC2CCOCC2)CC1 [Compound 3]	≥ 1000
O=C(c1cccnc1-c1ccncn1)N1CCC(F)(Cc2ccc(C(F)(F)F)cc2)CC1 [Compound 4, (4-fluoro-4-(4-(trifluoromethyl)benzyl)piperidin-1-yl)(2-(pyrimidin-4-yl)pyridin-3-yl)methanone]	< 100
O=C(c1cccnc1-c1ccncn1)N1CCC(F)(Cc2ccccn2)CC1 [Compound 5, (4-fluoro-4-(pyridin-2-ylmethyl)piperidin-1-yl)(2-(pyrimidin-4-yl)pyridin-3-yl)methanone]	< 100
N#Cc1ccc(CC2(F)CCN(C(=O)c3cccnc3-c3ccncn3)CC2)cc1 [Compound 6, 4-((4-fluoro-1-(2-(pyrimidin-4-yl)nicotinoyl)piperidin-4-yl)methyl)benzonitrile]	< 100
O=C(c1cccnc1-c1ccncn1)N1CCC(F)(Cc2ccc(C3CC3)cn2)CC1 [Compound 7, (4-((5-cyclopropylpyridin-2-yl)methyl)-4-fluoropiperidin-1-yl)(2-(pyrimidin-4-yl)pyridin-3-yl)methanone]	< 100
N#Cc1ccc(CC2(F)CCN(C(=O)c3cccnc3-c3ccncn3)CC2)c(F)c1 [Compound 9, 3-fluoro-4-((4-fluoro-1-(2-(pyrimidin-4-yl)nicotinoyl)piperidin-4-yl)methyl)benzonitrile]	< 100
O=C(c1cccnc1-c1ccncn1)N1CCC(F)(Cc2ccc(F)cn2)CC1 [Compound 10, (4-fluoro-4-((5-fluoropyridin-2-yl)methyl)piperidin-1-yl)(2-(pyrimidin-4-yl)pyridin-3-yl)methanone]	100 to 1000
N#Cc1cc(F)c(CC2(F)CCN(C(=O)c3cccnc3-c3ccncn3)CC2)c(F)c1 [Compound 11, 3,5-difluoro-4-((4-fluoro-1-(2-(pyrimidin-4-yl)nicotinoyl)piperidin-4-yl)methyl)benzonitrile]	< 100
O=C(c1cccnc1-c1ccncn1)N1CCC(F)(C(=O)c2ccc(C(F)(F)F)cc2)CC1 [Compound 12, (4-fluoro-1-(2-(pyrimidin-4-yl)nicotinoyl)piperidin-4-yl)(4-(trifluoromethyl)phenyl)methanone]	100 to 1000
N#Cc1ccc([C@H](O)C2(F)CCN(C(=O)c3cccnc3-c3ccncn3)CC2)c(F)c1 [Compound 15]	< 100
N#Cc1ccc([C@@H](O)C2(F)CCN(C(=O)c3cccnc3-c3ccncn3)CC2)c(F)c1 [Compound 16]	100 to 1000
N#Cc1ccc(C(=O)C2(F)CCN(C(=O)c3cccnc3-c3ccncn3)CC2)c(F)c1 [Compound 17, 3-fluoro-4-(4-fluoro-1-(2-(pyrimidin-4-yl)nicotinoyl)piperidine-4-carbonyl)benzonitrile]	100 to 1000
N#Cc1ccc(CC2(F)CCN(C(=O)c3cccnc3-c3ccncn3)CC2)nc1 [Compound 21, 6-((4-fluoro-1-(2-(pyrimidin-4-yl)nicotinoyl)piperidin-4-yl)methyl)nicotinonitrile]	100 to 1000
O=C(c1cccnc1-c1ccncn1)N1CCC(F)(Cc2cc(C(F)(F)F)ccn2)CC1 [Compound 25, (4-fluoro-4-((4-(trifluoromethyl)pyridin-2-yl)methyl)piperidin-1-yl)(2-(pyrimidin-4-yl)pyridin-3-yl)methanone]	100 to 1000
O=C(c1cccnc1-c1ccncn1)N1CCC(F)(Cc2ccc(OC(F)(F)F)cn2)CC1 [Compound 27, (4-fluoro-4-((5-(trifluoromethoxy)pyridin-2-yl)methyl)piperidin-1-yl)(2-(pyrimidin-4-yl)pyridin-3-yl)methanone]	100 to 1000
O=C(c1cccnc1-c1ccncn1)N1CCC(F)(Cc2ncc(Cl)cc2F)CC1 [Compound 30, (4-((5-chloro-3-fluoropyridin-2-yl)methyl)-4-fluoropiperidin-1-yl)(2-(pyrimidin-4-yl)pyridin-3-yl)methanone]	100 to 1000
O=C(c1cccnc1-c1ccncn1)N1CCC(F)(Cc2ccc(C(F)(F)F)nn2)CC1 [Compound 36, (4-fluoro-4-((6-(trifluoromethyl)pyridazin-3-yl)methyl)piperidin-1-yl)(2-(pyrimidin-4-yl)pyridin-3-yl)methanone]	100 to 1000
O=C(c1cccnc1-c1ccncc1)N1CCC(F)(Cc2ccc(C(F)(F)F)nn2)CC1 [Compound 37, [2,4′-bipyridin]-3-yl(4-fluoro-4-((6-(trifluoromethyl)pyridazin-3-yl)methyl)piperidin-1-yl)methanone]	100 to 1000
O=C(c1cccnc1-c1ccncn1)N1CCC(F)(Cc2cnc(C(F)(F)F)cn2)CC1 [Compound 40, (4-fluoro-4-((5-(trifluoromethyl)pyrazin-2-yl)methyl)piperidin-1-yl)(2-(pyrimidin-4-yl)pyridin-3-yl)methanone]	100 to 1000
O=C(c1cccnc1-c1ccncn1)N1CCC(F)(Cc2cnc(C(F)(F)F)nc2)CC1 [Compound 41, (4-fluoro-4-((2-(trifluoromethyl)pyrimidin-5-yl)methyl)piperidin-1-yl)(2-(pyrimidin-4-yl)pyridin-3-yl)methanone]	100 to 1000
Cc1ccc(CC2(F)CCN(C(=O)c3cccnc3-c3ccncn3)CC2)nc1 [Compound 42, (4-fluoro-4-((5-methylpyridin-2-yl)methyl)piperidin-1-yl)(2-(pyrimidin-4-yl)pyridin-3-yl)methanone]	100 to 1000
O=C(c1cccnc1-c1ccncn1)N1CCC(F)(Cc2cnccn2)CC1 [Compound 44, (4-fluoro-4-(pyrazin-2-ylmethyl)piperidin-1-yl)(2-(pyrimidin-4-yl)pyridin-3-yl)methanone]	100 to 1000
O=C(c1cccnc1-c1ccncn1)N1CCC(F)(Cc2cccnn2)CC1 [Compound 48, (4-fluoro-4-(pyridazin-3-ylmethyl)piperidin-1-yl)(2-(pyrimidin-4-yl)pyridin-3-yl)methanone]	100 to 1000
O=C(c1cccnc1-c1ccncc1)N1CCC(F)(Cc2cccnn2)CC1 [Compound 49, [2,4′-bipyridin]-3-yl(4-fluoro-4-(pyridazin-3-ylmethyl)piperidin-1-yl)methanone]	100 to 1000
Cc1cnc(CC2(F)CCN(C(=O)c3cccnc3-c3ccncn3)CC2)cn1 [Compound 50, (4-fluoro-4-((5-methylpyrazin-2-yl)methyl)piperidin-1-yl)(2-(pyrimidin-4-yl)pyridin-3-yl)methanone]	100 to 1000
Cc1ccc(CC2(F)CCN(C(=O)c3cccnc3-c3ccncn3)CC2)cn1 [Compound 53]	100 to 1000
